Key:
Type in all cases: biochemical
[1] = tested on: acetylcholinesterase (ACHE); test: Competition assay using the Elman's method (acetylthiocholine/DTNB); conditions: acetylthiocholine 1.5 mM, DTNB 0.5 mM, 3 units AChE, phosphate-buffered saline
Procedure: (ii) Competition assay using the Elman's method: Hydrolysis of acetylthiocholine (ATC) releases thiocholine, which reduces 5,5′-dithiobis-2-nitrobenzoate (DTNB) giving rise to a yellow coloring of the solution. […] A series of solutions with varying concentrations of Derivatives 1 and 2 in methanol together with acetylthiocholine (1.5 mM), DTNB (0.5 mM), and with 3 units of acetylcholinesterase (ACHE) in phosphate-buffered saline, was prepared. The rate of appearance of yellow color was determined in each of the reaction mixtures. […] Thus, vesicles prepared from Derivative 1 are expected to disrupt faster than vesicles prepared from Derivative 2, when exposed to cholinesterases.

cholinesterases (ChE) = test: pH-stat method: hydrolysis of headgroups by cholinesterases of human serum; conditions: 100 mM solutions diluted 100 times, pH 9.0, human serum 0.1 ml, 15 min
Procedure: The ability of cholinesterases (ChE) to hydrolyze Derivatives 1 and 2 was assessed using two methods:
(i) The pH-stat method: Hydrolysis of the acetylcholine ester headgroups of Derivative 1, as well as of acetylcholine (ACh), by cholinesterases (ChE), releases acetic acid into the solution. Hydrolysis of Derivative 2 by ChE releases choline and a free fatty acid. In both cases, the release of acid results in pH drop. The hydrolysis rate of these compounds can be determined by measuring the amount of NaOH needed to neutralize the acid generated during hydrolysis. Three solutions, 100 mM concentration each of acetylcholine (ACh) in water and of Derivatives 1 and 2 in methanol were prepared, then diluted 100 times with water (10 ml), and their pH was adjusted to pH 9.0 using 0.1M NaOH. The pH was monitored until it remained stable for 10 min (baseline). At this stage, human serum (0.1 ml) containing ChE, was added and each of the solutions was titrated with 0.05M NaOH in order to maintain pH 9.0. The amount of the NaOH needed to maintain constant pH was measured during 15 min. […] Thus vesicles prepared from Derivative 1 are expected to disrupt, in presence of ChE, faster than vesicles made from Derivative 2.

[2] = molecular target: T1, aromatic L-amino acid decarboxylase (AADC) (Rattus norvegicus, UniProt P14173); test: Decarboxylation of headgroup by AADC from rat liver homogenate (HPLC, electrochemical detector)
T1 construct: rat liver homogenate served as the source for AADC; from tissue; host or cells: rat liver homogenate
T1 sequence (P14173 1-480): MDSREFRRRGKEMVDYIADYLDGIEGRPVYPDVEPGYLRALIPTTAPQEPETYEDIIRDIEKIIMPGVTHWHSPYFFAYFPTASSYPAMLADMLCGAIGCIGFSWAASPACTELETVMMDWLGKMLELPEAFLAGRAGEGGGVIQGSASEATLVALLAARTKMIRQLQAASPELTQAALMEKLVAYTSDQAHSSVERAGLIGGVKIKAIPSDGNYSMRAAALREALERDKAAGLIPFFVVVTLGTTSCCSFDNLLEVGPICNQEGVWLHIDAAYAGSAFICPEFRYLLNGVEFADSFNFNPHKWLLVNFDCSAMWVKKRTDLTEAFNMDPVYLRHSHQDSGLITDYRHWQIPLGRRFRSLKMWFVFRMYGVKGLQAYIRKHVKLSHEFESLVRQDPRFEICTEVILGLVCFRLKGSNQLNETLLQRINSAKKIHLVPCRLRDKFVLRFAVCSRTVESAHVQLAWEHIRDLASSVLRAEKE
Source text: Derivative 5 contains an aromatic amino acid moiety as a headgroup. This negatively charged headgroup, at physiological pH, may be a suitable substrate for the enzyme aromatic L-amino acid decarboxylase (AADC). Upon exposure to AADC, the headgroup of Derivative 5 should be converted to an amine thus changing the nature of the headgroup (from a carboxyl to amine) in a way that can result in destabilization of vesicles made from Derivative 5.
To test whether Derivative 5 could serve as a substrate for AADC, rat liver homogenate served as the source for AADC and the following experiment was carried out. A methanol solution (0.005 ml) of Derivative 5 was added to a reaction mixture (0.5 ml final volume) containing potassium phosphate (50 mM, pH=7.0), dithiothreitol (1 mM), EDTA (0.2 mM), pyridoxal 5′-phosphate (0.01 mM), pargylin (0.1 mM), and rat liver homogenate adjusted to 5 mg protein. The final concentration of Derivative 5 was 1 mM. The reaction mixture was incubated at 37° C. for 60 min followed by the addition of 0.05 ml perchloric acid (70%) and neutralized by 4M KOH. The mixture was then centrifuged at 20.000 g for 10 min at 4° C. and 0.1 ml of the supernatant was injected into a C18-HPLC column. The presence of the amine, which was formed during the reaction, was determined by electrochemical detector. […]

For `CCCCCC(OC(=O)C[N+](C)(C)CCOC(C)=O)C(O)CC=CCCCCCCCC(=O)NCCNC(=O)CCCCCCCC=CCC(O)C(CCCCC)OC(=O)C[N+](C)(C)CCOC(C)=O` (stereo not shown) [Derivative 1], the “competition with acetylthiocholine for the hydrolyzing enzyme (rate of appearance of yellow color)” value [1] was “higher extent” and the “hydrolysis rate (NaOH needed to maintain constant pH)” value (cholinesterases (ChE)) was “faster hydrolysis”.

`CCCCCC(OC(=O)CNc1ccc(CC(N)C(=O)O)cc1)C(O)CC=CCCCCCCCC(=O)NCCNC(=O)CCCCCCCC=CCC(O)C(CCCCC)OC(=O)CNc1ccc(CC(N)C(=O)O)cc1` (stereo not shown) [Derivative 5] was tested, and the “decarboxylation to the amine (HPLC peak)” value ([2]; 1 mM, rat liver homogenate 5 mg protein, 37° C., 60 min) was “decarboxylated” and the “amine peak in presence of benserazide” value ([2]; benserazide 5×10^-5 M added to the reaction mixture) was “not detectable”.
